Where a name gives a salt, the structure may show the parent alone.
Experiments:
[1] = tested on: glomerular basement membrane; conditions: streptozotocin-diabetic rat; Brownlee et al., 1988; cited from earlier work
[2] = tested on: immunoglobulin trapping in the kidney; conditions: Brownlee et al., Diabetes 1986; cited from earlier work
red blood cells = conditions: in vivo, diabetic rabbits; 100 mg/kg by oral gavage; cited from earlier work
[3] = tested on: aortic wall protein cross-linking; conditions: diabetic rats; cited from earlier work
[4] = tested on: cross-linking of glycated bovine serum albumin (AGE-BSA) to the rat tail tendon collagen; assay: Inhibition of cross-linking of glycated bovine serum albumin (AGE-BSA) to rat tail tendon collagen coated 96-well plate (ELISA); assay type: biochemical; conditions: 4 h, pH 7.4
Procedure: The following method was used to evaluate the ability of the compounds of the present invention to inhibit the cross-linking of glycated bovine serum albumin (AGE-BSA) to the rat tail tendon collagen coated 96-well plate.
The AGE-BSA was prepared by incubating BSA at a concentration of 200 mg per ml with 200 mM glucose in 0.4M sodium phosphate buffer, pH 7.4 at 37° C. for 12 weeks. The glycated BSA was then extensively dialyzed against phosphate buffer solution (PAS) for 48 hours with additional 5 times buffer exchanges. The rat tail tendon collagen coated plate was blocked first with 300 μl of superbloc blocking buffer (Pierce #37515X) for one hour. The blocking solution was removed from the wells by washing the plate twice with PAS-Tween 20 solution (0.05% Tween 20) using a NUNC-multiprobe or Dynatech ELISA-plate washer. Cross-linking of AGE-BSA (1 to 10 μg per well depending on the batch of AGE-BSA) to rat tail tendon collagen coated plate was performed with and without the testing compound dissolved in PAS buffer at pH 7.4 at the desired concentrations by the addition of 50 μl each of the AGE-BSA diluted in PAS or in the testing compound at 37° C. for 4 hours. The unbrowned BSA in PAS buffer with or without testing compound were added to the separate wells as the blanks. The un-cross-linked AGE-BSA was then removed by washing the wells three times with PAS-Tween buffer. The cross-linked AGE-BSA to the tail tendon coated plate was then quantitated by the polyclonal antibody raised against AGE-RNase. After a one-hour incubation period, AGE antibody was removed by washing 4 times with PAS-Tween.
The bound AGE antibody was then detected with the addition of horseradish peroxidase-conjugated secondary antibody, e.g., goat anti-rabbit immunoglobulin and incubation for 30 minutes. The substrate of 2,2-azino-di(3-ethylbenzthiazoline sulfonic acid) (ABTS chromogen) (Zymed #00-2011) was added. The reaction was allowed for an additional 15 minutes and the absorbance was read at 410 nm in a Dynatech plate reader.
The % inhibition of each test compound was calculated as follows.
% inhibition={[Optical density (without compound)-optical density (with
compound)]/optical density (without compound)]}100%
The IC50 relative inhibition by various test compounds at 10 Mm is as follows: […]

gelatin, i.e., collagen = assay: Surface browning experiment: gelatin/paper disks in glucose-6-phosphate; conditions: Peridex at a final concentration of 0.04% chlorhexidine; 100 Mm glucose-6-phosphate, one week at 50° C., pH 7.4
Procedure: To further study the ability of inhibitors of nonenzymatic browning to prevent the discoloration of protein on a surface, such as that which occurs on the tooth surface, the following surface browning experiment is performed. As a substitute for a pellicle-covered tooth surface, unexposed and developed photographic paper is used to provide a fixed protein (gelatin, i.e., collagen) surface on a paper backing. Five millimeter circles are punched and immersed for one week at 50° C. in a solution of 100 Mm glucose-6-phosphate in a 0.5M phosphate buffer, Ph 7.4, containing 3 Mm sodium azide. Glucose-6-phosphate is a sugar capable of participating in nonenzymatic browning at a more rapid rate than glucose. In addition to the glucose-6-phosphate, chlorhexidine and/or a compound of Formula I are included. After incubation, the gelatin/paper disks are rinsed with water, observed for brown color, and photographed.

Maillard reaction = conditions: cited from earlier work; for catalysis of browning reactions in vitro: Nordbo, J. Dent. Res., 1979
dental pellicle = conditions: use of chlorhexidine; cited from earlier work
RNAase = conditions: free lysine; Eble et al., 1983; cited from earlier work

| Compound | IC50 [4] [µM] | other results |
| --- | --- | --- |
| N=C(N)NN [aminoguanidine] | – | intervention in the development of diabetic nephropathy [1]: intervenes in the development of diabetic nephropathy; immunoglobulin trapping in the kidney [2]: reduction of immunoglobulin trapping in the kidney; diabetes-induced changes in the deformability of red blood cells (red blood cells): has been shown to prevent it in vivo; aortic wall protein cross-linking [3]: diminishes aortic wall protein cross-linking |
| CC(C=NNC1=NCCN1)=NNC1=NCCN1 [methyl glyoxal bis(2-hydrazino-2-imidazoline hydrazone) dihydrobromide] | 2040 ± 50 | – |
| N=C(N)NN=CC(=NNC(=N)N)c1ccccc1 [phenyl glyoxal bis(guanylhydrazone)dihydrochloride] | 340 ± 190 | – |
| CC(C=NNC1=NCCCN1)=NNC1=NCCCN1 [methyl glyoxal bis(2-hydrazino-1,4,5,6-tetrahydropyrimidine hydrazone)dihydrobromide] | 840 ± 120 | – |
| CC(C=NNC(=N)NCCN1CCOCC1)=NNC(=N)NCCN1CCOCC1 [methylglyoxal bis{N-[2-(4-morpholino)ethyl]hydrazinecarboximidamide hydrazone}tetrahydrobromide] | 2200 ± 130 | – |
| [H]/N=C(\N/C(=N/[H])NCCCCCCNC(=N)NC(=N)Nc1ccc(Cl)cc1)Nc1ccc(Cl)cc1 [chlorhexidine] | – | browning of gelatin disks with chlorhexidine (gelatin, i.e., collagen): significant browning; catalysis of browning reactions in vitro (Maillard reaction): catalyze browning reactions in vitro; color formation in mixtures containing a sugar derivative and a source of amino groups (Maillard reaction; attributed to the Maillard reaction): increased color formation; dental pellicle (dental pellicle): increased dental pellicle |
| CC(C=NNC(=N)NCCCN(C)C)=NNC(=N)NCCCN(C)C [methyl glyoxal bis[N-3-dimethylaminopropyl)hydrazinecarboximidamide hydrazone]tetrahydrobromide] | 220 ± 50 | – |
| OCCN1CCN=C1NN=CC(=NNC1=NCCN1CCO)c1ccco1 [furyl glyoxal bis[1-(2-hydroxyethyl)-2-hydrazino-2-imidazoline hydrazone]dimethanesulfonate monohydrate] | 920 ± 260 | – |
| N=C(N)NN=CC(=NNC(=N)N)c1ccco1 [furyl glyoxal bis (guanyl hydrazone)dihydrochloride dihydrate] | 310 | – |
| benzalkonium chloride | – | catalysis of browning reactions in vitro (Maillard reaction): catalyze browning reactions in vitro |
| C(=NNC1=NCCN1)c1ccccc1C=NNC1=NCCN1 [o-phthalicdicarboxaldehyde bis(2-hydrazino-2-imidazoline hydrazone)dihydrobromide monohydrate] | 430 ± 80 | – |
| NCCCC[C@H](N)C(=O)O [lysine] | – | competition with lysine on RNAase for binding of glycosylated protein (RNAase): would compete with the lysine on RNAase for the binding of glycosylated protein |
| CC(C=NNC1=NCCN1CCO)=NNC1=NCCN1CCO [methyl glyoxal bis[1-(2-hydroxyethyl)-2-hydrazino-2-imidazoline hydrazone]dimethanesulfonate] | 320 ± 70 | – |
| CC(C=NNC(=N)NCC(C)(C)CN(C)C)=NNC(=N)NCC(C)(C)CN(C)C [methyl glyoxal bis[N-(2,2-dimethyl-3-dimethylaminopropyl)hydrazinecarboximidamide hydrazone]tetrahydrobromide] | 440 ± 60 | – |

Continued by falling IC50 [4], values first:

| IC50 [4] [µM] | Compound | other results |
| --- | --- | --- |
| 170 ± 110 | CC(C=NNC1=NCCCN1CCO)=NNC1=NCCCN1CCO [methyl glyoxal bis[1-(2-hydroxyethyl)-2-hydrazino-1,4,5,6-tetrahydropyrimidine hydrazone]dimethanesulfonate] | – |
| 120 | CCc1nnc(NN=CC(C)=NNc2nnc(CC)n2N)n1N [methyl glyoxal-bis-(4-amino-3-hydrazino-5-ethyl-1,2,4-triazole)hydrazone dihydrochloride] | – |
| 120 ± 100 | C(=NNC1=NCCN1)C(=NNC1=NCCN1)c1ccco1 [furyl glyoxal bis(2-hydrazino-2-imidazoline hydrazone) dihydrobromide dihydrate] | – |
| 110 | CC(C=NNc1nnc(C(C)C)n1N)=NNc1nnc(C(C)C)n1N [methyl glyoxal-bis-(4-amino-3-hydrazino-5-isopropyl-1,2,4-triazole)hydrazone dihydrochloride] | – |
| 100 | C1CNC(NN=C2CCC(=NNC3=NCCN3)CC2)=N1 [1,4-cyclohexane dione bis(2-hydrazino-2-imidazoline hydrazone]dihydrobromide dihydrate] | – |
| 90 ± 130 | OCCN1CCN=C1NN=CC(=NNC1=NCCN1CCO)c1ccccc1 [phenyl glyoxal bis[1-(2-hydroxyethyl)-2-hydrazino-2-imidazoline hydrazone]dimethanesulfonate dihydrate] | – |
| 70 ± 100 | OCCN1CCCN=C1NN=CC(=NNC1=NCCCN1CCO)c1ccccc1 [phenyl glyoxal bis[1-(2-hydroxyethyl)-2-hydrazino-1,4,5,6-tetrahydropyrimidine hydrazone]dimethanesulfonate dihydrate] | – |
| 40 | CC(CC(C)=NNC1=NCCN1)=NNC1=NCCN1 [2,4-pentanedione bis(2-hydrazino-2-imidazoline hydrazone)dihydrobromide] | – |
| 33 | CCCC(=NNC1=NCCCN1)C(C)=NNC1=NCCCN1 [2,3-hexanedione bis(2-tetrahydropyrimidine)hydrazone dihydrobromide] | – |
| 30 | C(=NNC1=NCCN1)c1cc2ccccc2cc1C=NNC1=NCCN1 [2,3-naphthalene dialdehyde bis(2-hydrazino-2-imidazoline hydrazone)dihydrobromide dihydrate] | – |
| 20 | OCCN1CCCN=C1NN=CC(=NNC1=NCCCN1CCO)c1ccco1 [furyl glyoxal bis[1-(2-hydroxyethyl)-2-hydrazino-1,4,5,6-tetrahydropyrimidine hydrazone]dimethanesulfonate dihydrate] | – |
| 20 | C1=CC(=NNC2=NCCN2)C=CC1=NNC1=NCCN1 [1,4-benzoquinone bis(2-hydrazino-2-imidazoline hydrazone) dihydrobromide] | – |
| 20 | c1coc(C(=NNC2=NCCN2)C(=NNC2=NCCN2)c2ccco2)c1 [furyl bis (2-hydrazino-2-imidazoline hydrazone) dihydrobromide] | – |
| 10 | C1CCC(=NNC2=NCCN2)C(=NNC2=NCCN2)C1 [1,2-cyclohexanedione bis(2-hydrazino-2-imidazoline hydrazone)dihydrobromidedihydrate] | – |
| 6.7 | C1CN=C(NN=C2CCCCC2=NNC2=NCCCN2)NC1 [1,2-cyclohexanedione bis(2-tetrahydropyrimidine)hydrazone dihydrobromide] | – |
| 4.1 | CC(=NNC1=NCCCN1)C(C)=NNC1=NCCCN1 [2,3-butanedione bis(2-tetrahydropyrimidine)hydrazone dihydrobromide] | – |
